{
  "source": "patent US11168083B2",
  "about": "“Inhibitors of Plasma Kallikrein and uses thereof” (Takeda Pharmaceutical Company Limited, priority 2017, dated 2021)",
  "data": [
    {"molecular_target": "human activated kallikrein enzyme (Homo sapiens (Human), UniProt P03952)", "sequence (P03952 391-638)": "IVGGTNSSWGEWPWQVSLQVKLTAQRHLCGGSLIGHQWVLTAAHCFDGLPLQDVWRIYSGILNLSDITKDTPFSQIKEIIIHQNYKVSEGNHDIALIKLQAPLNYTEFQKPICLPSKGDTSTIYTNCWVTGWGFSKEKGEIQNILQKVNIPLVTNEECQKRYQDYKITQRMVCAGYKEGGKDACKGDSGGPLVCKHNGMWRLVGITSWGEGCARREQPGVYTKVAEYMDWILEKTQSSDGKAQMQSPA", "sequence (P03952 20-390 partner)": "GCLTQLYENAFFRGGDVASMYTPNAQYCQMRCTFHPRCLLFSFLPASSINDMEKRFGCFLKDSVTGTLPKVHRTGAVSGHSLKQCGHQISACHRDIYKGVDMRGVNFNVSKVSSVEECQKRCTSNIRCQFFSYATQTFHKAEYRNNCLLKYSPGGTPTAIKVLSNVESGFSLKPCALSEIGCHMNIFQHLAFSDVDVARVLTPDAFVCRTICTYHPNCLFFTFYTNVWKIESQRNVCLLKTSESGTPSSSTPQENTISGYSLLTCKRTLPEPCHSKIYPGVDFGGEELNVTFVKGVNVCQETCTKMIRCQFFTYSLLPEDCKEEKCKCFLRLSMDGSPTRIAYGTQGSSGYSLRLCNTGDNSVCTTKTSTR", "test": "Inhibition of human activated kallikrein enzyme, fluorogenic peptide substrate assay (two formats)", "type": "biochemical", "conditions": "Table 2; column head prints nM, ranges defined in μM; read-out: pKal EC50", "description": "The example compounds were evaluated for inhibition of the human activated kallikrein enzyme in two formats of an assay employing a fluorogenic peptide substrate. In one assay format, the concentrations of reagents were as follows: 20 mM Tris pH 7.5, 1 mM EDTA, 150 mM sodium chloride, 0.1% PEG-400, 0.1% Triton X-100, 500 pM activated kallikrein enzyme, 300 uM Pro-Phe-Arg-7-amido-4-methylcoumarin substrate. Prior to reaction initiation with substrate, enzyme and inhibitors were preincubated for 30 min at room temperature. After initiation with substrate, reactions were incubated for 10 min at room temperature and fluorescence emission at 460 nm from 380 nm excitation measured with a microplate reader. In another assay format, the concentrations of reagents were as follows: 20 mM Tris pH 7.5, 1 mM EDTA, 150 mM sodium chloride, 0.1% PEG-400, 0.1% Triton X-100, 5 pM activated kallikrein enzyme, 300 uM Pro-Phe-Arg-7-amido-4-methylcoumarin substrate. Prior to reaction initiation with substrate, enzyme and inhibitors were preincubated for 30 min at room temperature. After initiation with substrate, reactions were incubated for 18 hr at room temperature and fluorescence emission at 460 nm from 380 nm excitation measured with a microplate reader.", "units": {"EC50": "nM"}, "values": [
      {"compound": "N=C(N)NCCCCCNC(=O)c1csc([C@@H]2C[C@@H](N)CN2C(=O)c2cn3cc(Cl)ccc3n2)n1", "note": "[Compound 46, 2-((2S,4R)-4-amino-1-(6-chloroimidazo[1,2-a]pyridine-2-carbonyl)pyrrolidin-2-yl)-N-(5-guanidinopentyl)thiazole-4-carboxamide]", "EC50": "100 to 1000"},
      {"compound": "N=C(N)c1ccc(CNC(=O)c2csc([C@@H]3C[C@@H](N)CN3C(=O)c3cn4cc(Cl)ccc4n3)n2)cc1", "note": "[Compound 47, 2-((2S,4R)-4-amino-1-(6-chloroimidazo[1,2-a]pyridine-2-carbonyl)pyrrolidin-2-yl)-N-(4-carbamimidoylbenzyl)thiazole-4-carboxamide]", "EC50": "≤ 100"},
      {"compound": "Cc1cc(N)nc(C)c1CNC(=O)c1csc([C@@H]2C[C@@H](N)CN2C(=O)c2cn3cc(Cl)ccc3n2)n1", "note": "[Compound 48, 2-((2S,4R)-4-amino-1-(6-chloroimidazo[1,2-a]pyridine-2-carbonyl)pyrrolidin-2-yl)-N-((6-amino-2,4-dimethylpyridin-3-yl)methyl)thiazole-4-carboxamide]", "EC50": "100 to 1000"},
      {"compound": "Nc1nccc2cc(CNC(=O)c3csc([C@@H]4C[C@@H](N)CN4C(=O)c4cn5cc(Cl)ccc5n4)n3)ccc12", "note": "[Compound 49, 2-((2S,4R)-4-amino-1-(6-chloroimidazo[1,2-a]pyridine-2-carbonyl)pyrrolidin-2-yl)-N-((1-aminoisoquinolin-6-yl)methyl)thiazole-4-carboxamide]", "EC50": "≤ 100"},
      {"compound": "NCc1ccc(CNC(=O)c2csc([C@@H]3C[C@@H](N)CN3C(=O)c3cn4cc(Cl)ccc4n3)n2)cc1", "note": "[Compound 50, 2-((2S,4R)-4-amino-1-(6-chloroimidazo[1,2-a]pyridine-2-carbonyl)pyrrolidin-2-yl)-N-(4-(aminomethyl)benzyl)thiazole-4-carboxamide]", "EC50": "5000 to 9900"},
      {"compound": "N=C(N)c1ccc(CCNC(=O)c2csc([C@@H]3C[C@@H](N)CN3C(=O)c3cn4cc(Cl)ccc4n3)n2)cc1", "note": "[Compound 51, 2-((2S,4R)-4-amino-1-(6-chloroimidazo[1,2-a]pyridine-2-carbonyl)pyrrolidin-2-yl)-N-(4-carbamimidoylphenethyl)thiazole-4-carboxamide]", "EC50": "≤ 100"},
      {"compound": "Cc1cc(N)nc(C)c1CCNC(=O)c1csc([C@@H]2C[C@@H](N)CN2C(=O)c2cn3cc(Cl)ccc3n2)n1", "note": "[Compound 52, 2-((2S,4R)-4-amino-1-(6-chloroimidazo[1,2-a]pyridine-2-carbonyl)pyrrolidin-2-yl)-N-(2-(6-amino-2,4-dimethylpyridin-3-yl)ethyl)thiazole-4-carboxamide]", "EC50": "> 9900"},
      {"compound": "NCc1ccc(CCNC(=O)c2csc([C@@H]3C[C@@H](N)CN3C(=O)c3cn4cc(Cl)ccc4n3)n2)cc1", "note": "[Compound 54, 2-((2S,4R)-4-amino-1-(6-chloroimidazo[1,2-a]pyridine-2-carbonyl)pyrrolidin-2-yl)-N-(4-(aminomethyl)phenethyl)thiazole-4-carboxamide]", "EC50": "1000 to 5000"},
      {"compound": "N[C@@H]1C[C@@H](c2nc(C(=O)NCc3ncn4ccc(Cl)cc34)cs2)N(C(=O)c2cn3cc(Cl)ccc3n2)C1", "note": "[Compound 55, 2-((2S,4R)-4-amino-1-(6-chloroimidazo[1,2-a]pyridine-2-carbonyl)pyrrolidin-2-yl)-N-((7-chloroimidazo[1,5-a]pyridin-1-yl)methyl)thiazole-4-carboxamide]", "EC50": "100 to 1000"},
      {"compound": "N[C@@H]1C[C@@H](c2nc(C(=O)NCc3ccc4cc(Cl)ccc4c3)cs2)N(C(=O)c2cn3cc(Cl)ccc3n2)C1", "note": "[Compound 56, 2-((2S,4R)-4-amino-1-(6-chloroimidazo[1,2-a]pyridine-2-carbonyl)pyrrolidin-2-yl)-N-((6-chloronaphthalen-2-yl)methyl)thiazole-4-carboxamide]", "EC50": "> 9900"},
      {"compound": "CNC(=O)[C@@H](CCCCNC(=N)N)NC(=O)c1csc([C@@H]2C[C@@H](N)CN2C(=O)c2cc3cc(Cl)ccc3s2)n1", "note": "[Compound 57, 2-((2S,4R)-4-amino-1-(5-chlorobenzo[b]thiophene-2-carbonyl)pyrrolidin-2-yl)-N—((R)-6-guanidino-1-(methylamino)-1-oxohexan-2-yl)thiazole-4-carboxamide]", "EC50": "1000 to 5000"}
    ]}
  ]
}
